Earlier results in patent US20040185009A1, “Composition and device for treating periodontal diseases” (DEXCEL PHARMA TECHNOLOGIES LTD., priority 2003, published 2004).

How the values were obtained:
periodontal disease [1] = details: 100 mg/day for two months
periodontal disease [2] = details: 24 months, FBP-treated patient group

**Q.** Which “Effect on bone metabolism (standardized radiography, radiopharmaceutical uptake)” value (periodontal disease [1]) does the source give for CC(C(=O)O)c1ccc(-c2ccccc2)c(F)c1 (centres unmarked) [FBP, Flurbiprofen] here?
**A.** increased bone metabolism

**Q.** What about the “Effect on bone loss” value (periodontal disease [2]) of the same compound?
**A.** reduction in bone loss
